# Numbered stars: 1 amine (or outer) side, 2 acyl side, 3 side chain; on linkers, the order of the positions; unused ones are H or OH. Bridge positions count the residues as written; N and C are the ends. Square brackets hold non-standard residues; d marks the D form. Peptide text beside a SMILES is read from it. I, II: the chains in the order shown. Actinocin(9to1) = Cc1c2oc3c(C)ccc(C(=O)[*:1])c3nc-2c(C(=O)[*:2])c(N)c1=O; NMeV = CN[C@H](C(=O)O)C(C)C; Sar = CNCC(=O)O
# Legend:
# [1] = tested on: B16 melanoma; experiment: B16 melanoma implanted ip, drug ip (ip-ip) in BDF1 mice; assay type: in vivo
# Method: (§1) Subcutaneously implanted B16 melanoma in BDF1 mice is a slow growing tumor, but its rate of growth becomes faster when it is implanted ip. […] This is not consistent with data in other tumors; however, in this connection it should be pointed out that the combined effects of drugs (or enantiomers in this case) can be manifested in several ways, i.e., they can be synergistic, additive, or subtractive.
# (§2) 0.2 ml of brei (tumor weight/Hank's balanced salt solution, (1:5) of B16
# (§3) implanted sc or ip into groups of nine BDF1 mice on day 0. Drugs
# (§4) administered iv on day 1 or ip on days 1, 5, and 9, following tumor
# (§5) administered ip on days 1, 5, and 9. OD, optimal dose in
# (§6) milligrams/milliliter of vehicle, and administered iv or ip in 0.1 mL of
# (§7) vehicle (5% v/v Me2 SOsaline). MST, median survival times in days of
# (§8) tumor bearing and nondrug treated (control) or drugtreated mice. % ILS,
# (§9) percent increase in life span of drug treated groups over the control
# (§10) group of test animals, excluding survivors. (surv), number of sixty day
# (§11) survivors/number of mice treated with drug.
# [2] = tested on: L1210 cells; experiment: Inhibition of growth of L1210 cells in culture; assay type: cell-based, Murine
# Method: (§12) The analogues are assayed for in vitro growth inhibitory activity against several experimental tumor lines including human and murine leukemia, mouse melanoma, and human lymphoblastic leukemia.
# [3] = tested on: C26 colon carcinoma; experiment: C26 colon carcinoma implanted in CDF1 mice, drug ip; assay type: in vivo
# Method: implantation. Primary colon C26 carcinoma (tripan blue excluding, 2.5
# × 10^5 cells/mouse) implanted in CDF1 mice on day 0; drug
# as §5, §6, §7, §8, §9, §10, §11
# [4] = tested on: leukemia L1210; experiment: Activity in mice bearing leukemia L1210; assay type: in vivo; conditions: L1210 ip in CDF1 mouse
# Description: ^e OD, optimal dose of drugs in milligrams/killograms per injection,
# administered ip on days 1, 5, and 9, following ip inoculation with
# ^f % ILS, percent increase in median life span in days, of the
# tumorbearing drugtreated dying animals when compared with similar tumor
# bearing mice but not treated with drugs. (surv), number of over 60 days
# survivors/number of animals tested.
# [5] = tested on: CCRF-CEM; experiment: In vitro growth inhibition of CCRF-CEM human lymphoblastic leukemia cells; assay type: cell-based; conditions: purer (90%) form of isomers
# Method: as §12
# [6] = tested on: DNA synthesis in L1210 cells; experiment: Inhibition of DNA synthesis in L1210 ([methyl-14C]thymidine incorporation); assay type: cell-based, Murine; conditions: [methyl-14C]thymidine incorporation into DNA; read-out: inhibition of synthesis of nucleic acids in L1210 IC50 DNA
# Method: (§13) ^a Drug concentration (micromolor) for 50% reduction of incorporation
# (§14) of [methyl^14 C]thymidine into DNA^b and [5^3 H] uridine into
# (§15) RNA^c from the rate of incorporation of the same radionucleotides in
# (§16) nondrug treated L1210 cells growing actively in vitro.
# (§17) Inhibition of nucleic acid synthesis in L1210 lymphoid leukemia cells by (±)-EPA and it optical isomers are assayed. […] To achieve this, a digestion of the nucleic acid pellet with DNase-free RNase enzyme, prior to final pelleting of the DNA precipitate is made to ensure that no more than ±8% contamination from […] into DNA takes place, and for this the necessary correction is made in the data reported in Table V.
# [7] = tested on: purified calf thymus DNA; experiment: Covalent and noncovalent (intercalative) binding to calf thymus DNA, [DNA base]/[drug] ratios; conditions: 20 mM Tris-HCl pH 7.4, 37° C.
# Method: ^b Binding to purified calf thymus DNA in 20 mM TrisHCl, ph 7.4 buffe
# at 37° C.; A values are molar ratios of DNA to drug based on the
# total amount of drug that is bound both intercalatively and covalently to
# ^c B values are similar ratios assayed on the basis of drugs bound
# entirely by covalent bonding to DNA base.
# [8] = tested on: RNA synthesis in L1210 cells; experiment: Inhibition of RNA synthesis in L1210 ([5-3H]uridine incorporation); assay type: cell-based, Murine; conditions: [5-3H]uridine incorporation into RNA; read-out: inhibition of synthesis of nucleic acids in L1210 IC50 RNA
# Method: as §13, §14, §15, §16, §17
# [9] = tested on: P388/ADR; experiment: Inhibition of growth in vitro of P388/ADR cells; assay type: cell-based, mouse; conditions: actively growing tumor cells
# Method: as §12
# [10] = tested on: Calf Thymus DNA; experiment: Thermal denaturation (ΔTm) of DNA-drug complex; assay type: binding; conditions: 0.01 phosphate buffer pH 7.0, 5% Me2SO; in °C (unit assumed)
# Method: ^a ΔTm = Tm of DNAdrug complex minus Tm of
# drugfree DNA; concentration of drug 14.0 nM and that of DNA 70 nM in 0.01
# phosphate buffer, pH 7.0, 5 × 10^3 EDTA and 5% Me2 SO.
# DNA-binding experiments were carried out in 0.01M phosphate buffer (pH7), containing EDTA (10^-5 M).
# [11] = cited from earlier work
# [12] = tested on: P388/ADR; experiment: Antitumor activity against ip implanted P388/ADR in CDF1 mice; assay type: in vivo; parameters: OD (optimal dose of drugs): unit not given here
# Method: ^e Optimal dose of drugs.
# ^ f Median survival time of tumor bearing mice.
# ^g Percent increase in median life time in days of drugtreated dying
# animals vs those of controls; (survivors), number of 60 days
# survivors/number of animals tested in the group.
# In order to examine a broader spectrum of activity, these optical isomers are tested in two other mouse leukemia cell lines in vivo. One cell line, P388/ADR, is a derivative of the above P388/S made resistant to intercalating agents like […].
# [13] = tested on: B16; experiment: Inhibition of growth in vitro of B16 cells; assay type: cell-based, mouse; conditions: actively growing tumor cells
# Method: as §12
# [14] = tested on: B16 melanoma; experiment: B16 melanoma implanted sc, drug iv (sc-iv) in BDF1 mice; assay type: in vivo
# Method: as §1, §2, §3, §4, §5, §6, §7, §8, §9, §10, §11
# [15] = B16 ip implanted, drug ip days 1, 5, 9
# [16] = ip days 1, 5, 9, at optimal dose
# [17] = B16 sc implanted, drug iv day 1
smiles,measurement,setting,value
"Cc1c2oc3c(C)ccc(C(=O)N[C@@H]4C(=O)N[C@H](C(C)C)C(=O)N5CCC[C@H]5C(=O)N(C)CC(=O)N(C)[C@@H](C(C)C)C(=O)O[C@@H]4C)c3nc-2c(C(=O)N[C@@H]2C(=O)N[C@H](C(C)C)C(=O)N3CCC[C@H]3C(=O)N(C)CC(=O)N(C)[C@@H](C(C)C)C(=O)O[C@@H]2C)c(N)c1=O [1b(AMD), Actinomycin D] (I: T[dV]P[Sar][NMeV] / II: T[dV]P[Sar][NMeV]; ester I:1-I:C, II:1-II:C; linker I:N-II:N via Actinocin(9to1))",% ILS,[1]; [15],52%
same,(surv) sixty day survivors/number of mice treated,[1]; [15],0/9
same,MST (median survival time),[1]; [15],29.0 days
same,OD (optimal dose),"[1]; B16 ip implanted, drug ip days 1, 5, 9, 0.1 mL vehicle",0.25 milligrams/milliliter of vehic
same,"activity against ip implanted B16 tumor, in words",[1]; ip administered,only moderately active
same,inhibition of growth of L1210 cells in culture; ID50,[2],60.1 ± 9.8 nM
same,% ILS,"[3]; drug ip days 1, 5, 9",52%
same,(surv) sixty day survivors/number of mice treated,"[3]; drug ip days 1, 5, 9",0/10
same,MST,"[3]; drug ip days 1, 5, 9",33.5 days
same,OD (optimal dose),"[3]; drug ip days 1, 5, 9, 0.1 mL vehicle",0.30 milligrams/milliliter of vehic
same,OD (optimal dose),"[4]; ip days 1, 5, 9",0.025 milligrams/killograms per inje
same,% ILS (percent increase in median life span),[4]; [16],55%
same,(surv) number of over 60 days survivors/number of animals tested,[4]; [16],0/9
same,50% growth inhibitory dose (ID50),[5],12.5 nM
same,IC50,[6],380 ± 28 nM
same,"[DNA base]/[drug] A: molar ratio of DNA to drug, total drug bound intercalatively and covalently",[7],26 ± 2
same,IC50,[8],19 ± 6 nM
same,inhibition of growth ID50 P388/ADR,[9],2500 ± 250 nM
same,Tm (ΔTm = Tm of DNA-drug complex minus Tm of drug-free DNA),[10],7.1 ± 0.15
same,metabolism in vivo,[11],not metabolized in vivo
same,% ILS (percent increase in median life time vs controls),"[12]; ip qd 1-9, at optimal dose",33%
same,(surv) number of 60 days survivors/number of animals tested,"[12]; ip qd 1-9, at optimal dose",0/10
same,MST (median survival time),"[12]; ip qd 1-9, at optimal dose",12 days
same,OD (optimal dose of drugs),[12]; treated ip qd 1-9,0.075
same,inhibition of growth ID50 B16,[13],3.0 ± 1.0 nM
same,% ILS,[14]; [17],36%
same,(surv) sixty day survivors/number of mice treated,[14]; [17],0/9
same,MST (median survival time),[14]; [17],45.0 days
same,OD (optimal dose),"[14]; B16 sc implanted, drug iv day 1, 0.1 mL vehicle",0.9 milligrams/milliliter of vehic
same,"activity against sc implanted B16 tumor, in words",[14]; iv administered,only marginally active

# — US5155209A, “R-(+) enantiomeric form of 7-(2, 3-epoxypropoxy) actinomycin D” (priority 1991, dated 1992)
